# Experimental data reported in article PMC11659602, “Discovering covalent cyclic peptide inhibitors of peptidyl arginine deiminase 4 (PADI4) using mRNA-display with a genetically encoded electrophilic warhead” (Communications Chemistry, 2024).
# Where “and” joins values, the source holds several entries; their conditions need not be identical. Equal entries are not always repeated. Where two headings read alike, the source gives them in different places. Where a SMILES comes first, the peptide text is derived from it. Bridges are numbered along the chain shown (N, C = ends). [ ]: non-standard residue; d: D form. Orn(fluoroacetimidoyl) = N=C(CF)NCCC[C@H](N)C(=O)O; Orn(acetimidoyl) = CC(=N)NCCC[C@H](N)C(=O)O
# Assays:
# PADI4 [1] = target: T1, PADI4 (Homo sapiens, UniProt Q9UM07); assay: Incubation time-dependent COLDER assay IC50(t), Krippendorff fit; format: biochemical; details: for IC50: replicates, read-out: apparent IC50; for Ki / kinact: Krippendorff fit of IC50 vs time
# T1 construct: His6; made in house
# Protocol: To determine KI and kinact of covalent peptide inhibitors, COLDER assays were used[52]. Peptide dilutions were prepared using 5-fold dilutions from 500 µM and 300 µM to 0.8 µM and 2.4 µM, respectively, at 1% DMSO in COLDER buffer (50 mM HEPES, 150 mM NaCl and 2 mM DTT, pH 7.5). The 9 peptide dilutions were added to a 96-well plate, alongside a 1% DMSO control. An equal volume of 10 mM BAEE was added to each well and the solution was homogenised by pipette mixing. This was mixed with 50 nM His-PADI4, 0.6 mg/mL BSA and 10 mM CaCl2, in COLDER buffer, to bring the final volume to 300 µL in each well. Alternatively, His-PAD1 (100 nM) /His-PADI2 (100 nM) /His-PADI3 (250 nM) were used. For assays with PADI1 and PADI3, 10 mM N^α-benzoyl-L-arginine methyl […] (BAME) was used as the substrate instead of BAEE[48],[58],[59]. At 15-minute intervals, for 5 timepoints, 50 µL of solution was taken from each well and quenched with 10 µL EDTA (300 mM). 200 µL of COLDER solution containing 20 mM diacetyl monoxime/2,3-butanedione monoxime (Merck), 0.5 mM thiosemicarbazide (Acros Organics), 2.25 M H3PO4, 4.5 M H2SO4 and 1.5 mM NH4Fe(SO4)2.12H2O was added to each well. Samples were incubated for 20 min at 95 °C before measuring absorbance at 540 nm on a CLARIOstar Plus (BMG LABTECH). IC50 values for each time point were determined using non-linear regression with GraphPad Prism. Incubation time–dependent potency IC50(t) against incubation time was fitted to the Krippendorff equation (below) to determine KI and kinact using a Python script[53],[59]. […] IC50t=KI1+S/KM⋅2−2e^−ηIC50⋅kinact⋅t/ηIC50⋅kinact⋅t−1 WhereηIC50=IC50t/KI1+S/KM+IC50t
# PADI4 [2] = target: T1, PADI4; assay: Surface plasmon resonance (SPR), single cycle kinetics; format: binding; details: for Ki: k-1/k+1
# Protocol: S8. Surface plasmon resonance (SPR)
# Using a Biacore S200 (GE Healthcare), biotinylated His-PADI4 (80 nM) was immobilised on a CAP chip (GE Healthcare) to a response unit of approx. 3000. At 25 °C, single cycle kinetics mode was used with 5 samples of a 3-fold dilution series of peptides PADI4_3_H4(2), cP4_2, […]
# mM HEPES, 150 mM NaCl, 10 mM CaCl2, 0.05% Tween-20, 0.1% DMSO (pH 7.5). After each cycle, regeneration of the chip was carried out as per the manufacturer’s protocol. Data were analysed with the Biacore S200 Evaluation Software, each in triplicate. Warhead-containing peptides were analysed using the two-state reaction model, with the rate constant for the reverse second step (k-2) set to zero. The equilibrium constant of the reversible binding step, Ki, was calculated as the ratio of k-1/k+1 and the rate constant of the irreversible chemical step, kinact, as k+2. The Arg4, Cit4 and Me4 peptides were fitted using a 1:1 binding model. […]
# PADI4 [3] = target: T1, PADI4; assay: COLDER inhibition assay, BAEE substrate, with or without 1 h preincubation; format: biochemical; details: for IC50: COLDER; for remaining activity at 0.003 µM: peptide 0.003 µM; for remaining activity at 0.01 µM: peptide 0.01 µM; for remaining activity at 0.03 µM: peptide 0.03 µM; for remaining activity at 0.1 µM: peptide 0.1 µM; for remaining activity at 0.3 µM: peptide 0.3 µM; for remaining activity at 1 µM: peptide 1 µM; for remaining activity at 3 µM: peptide 3 µM; for remaining activity at 10 µM: peptide 10 µM
# Protocol: PADI4 citrullination activity was analysed using the COLDER assay in 96-well plates. Peptide dilutions were prepared from a 500 µM stock, to give a 10 times concentrated dilution series (500 µM, 300 µM, 100 µM, 30 µM, 10 µM, 3 µM, 1 µM, 0.3 µM, 0.1 µM and 0.03 µM) in COLDER buffer (50 mM HEPES, 150 mM NaCl and 2 mM DTT, pH 7.5) containing 1% DMSO. In triplicate, each was diluted 10-fold further when mixed with 50 nM His-PADI4, 0.6 mg/mL BSA and 10 mM CaCl2, in COLDER buffer. With or without one hour of incubation, 10 mM N^α-Benzoyl-L-arginine ethyl ester hydrochloride (BAEE, Merck) was added to initiate the reaction (50 µL final volume). After 30 min at rt, EDTA (50 mM final concentration) was used to quench the reaction and 200 µL of COLDER solution containing 20 mM Diacetyl monoxime/2,3-butanedione monoxime (Merck), 0.5 mM Thiosemicarbazide (Acros Organics), 2.25 M H3PO4, 4.5 M H2SO4 and 1.5 mM NH4Fe(SO4)2.12H2O was added to each well. Samples were incubated for 20 min at 95 °C before measuring absorbance at 540 nm on a CLARIOstar Plus (BMG LABTECH). Data analysis was performed with GraphPad Prism. Data are presented as the average ± standard error of the mean from at least two independent replicates.
# [4] = each replicate, read-out: k2 / kinact
# [5] = two-state reaction model, k+2, read-out: SPR kinact (converted)
# [6] = 1 h preincubation of peptide and PADI4, 10 mM CaCl2, read-out: IC50 Values 1 h preincubation
# [7] = no preincubation of peptide and PADI4, 10 mM CaCl2, read-out: IC50 Values 0 h preincubation
# [8] = T=0, values starred, read-out: PADI4 activity normalised to 0.1% DMSO
# [9] = T=1, read-out: PADI4 activity normalised to 0.1% DMSO
# [10] = T=0, read-out: PADI4 activity normalised to 0.1% DMSO
# [11] = no preincubation, read-out: PADI4 activity, normalised (Figure 4b dose-response)
# T1 sequence (Q9UM07 whole entry): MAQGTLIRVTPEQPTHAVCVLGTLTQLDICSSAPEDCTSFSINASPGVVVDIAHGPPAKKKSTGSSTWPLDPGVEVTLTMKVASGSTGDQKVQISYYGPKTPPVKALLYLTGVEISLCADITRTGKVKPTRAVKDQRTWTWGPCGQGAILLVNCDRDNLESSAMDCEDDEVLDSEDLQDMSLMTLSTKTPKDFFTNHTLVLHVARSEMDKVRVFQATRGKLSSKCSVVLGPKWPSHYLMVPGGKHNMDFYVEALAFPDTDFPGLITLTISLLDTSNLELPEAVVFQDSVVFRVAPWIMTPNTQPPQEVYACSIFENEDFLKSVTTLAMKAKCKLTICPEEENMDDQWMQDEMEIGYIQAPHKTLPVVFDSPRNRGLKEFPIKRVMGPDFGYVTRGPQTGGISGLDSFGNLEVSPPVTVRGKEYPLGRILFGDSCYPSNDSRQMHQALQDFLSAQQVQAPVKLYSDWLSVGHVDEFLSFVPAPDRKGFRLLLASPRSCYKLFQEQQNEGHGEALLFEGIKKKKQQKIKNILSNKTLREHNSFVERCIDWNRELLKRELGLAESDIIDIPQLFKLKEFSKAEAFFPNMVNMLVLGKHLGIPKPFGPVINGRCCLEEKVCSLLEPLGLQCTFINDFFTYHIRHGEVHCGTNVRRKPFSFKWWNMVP
SMILES,kinact/KI (PADI4 [1]) [M⁻¹ s⁻¹],IC50 (PADI4 [1]; 15 mins),IC50 (PADI4 [1]; 30 mins),IC50 (PADI4 [1]; 45 mins),IC50 (PADI4 [1]; 60 mins),IC50 (PADI4 [1]; 75 mins),Ki (PADI4 [1]) [nM],kinact (PADI4 [1]) [s⁻¹],kinact/KI (PADI4 [2]) [M⁻¹ s⁻¹],kinact (PADI4 [2]; [4]) [s⁻¹],kinact (PADI4 [2]; [5]) [s⁻¹],Ki (PADI4 [2]; two-state reaction model) [nM],IC50 (PADI4 [3]; [6]) [nM],IC50 (PADI4 [3]; [7]) [nM],remaining activity at 0.003 µM (PADI4 [3]; [8]) [%],remaining activity at 0.003 µM (PADI4 [3]; [9]) [%],remaining activity at 0.01 µM (PADI4 [3]; [8]) [%],remaining activity at 0.01 µM (PADI4 [3]; [9]) [%],remaining activity at 0.03 µM (PADI4 [3]; [10]) [%],remaining activity at 0.1 µM (PADI4 [3]; [10]) [%],also measured
"N=C(N)NCCC[C@@H]1NC(=O)[C@H](CCCCN)NC(=O)[C@H](CC(N)=O)NC(=O)[C@H](Cc2ccccc2)NC(=O)[C@H](CC(=O)O)NC(=O)[C@H](Cc2c[nH]c3ccccc23)NC(=O)[C@H](CC(N)=O)NC(=O)[C@H](CCCNC(=N)CF)NC(=O)[C@H](Cc2ccc(O)cc2)NC(=O)[C@H](Cc2c[nH]c3ccccc23)NC(=O)[C@@H](Cc2ccc(O)cc2)NC(=O)CSC[C@@H](C(=O)NCC(N)=O)NC1=O [cP4_10, yWY(2)NWDFNKRCG] ({CH2CO}-[dY]WY[Orn(fluoroacetimidoyl)]NWDFNKRCG-NH2; thioether N-12)",1450,7.24 µM and 6.94 µM and 5.53 µM,3.82 µM and 3.29 µM and 3.6 µM,2.72 µM and 2.38 µM and 2.64 µM,2.15 µM and 2.09 µM and 2.33 µM,1.96 µM and 1.81 µM and 2.18 µM,1500 ± 300,0.00217,33400,0.0041,0.00383,120 ± 100,93 ± 2,3100 ± 10,93.1,98.1,92,81.1,91.3,90.6,k2 / kinact (PADI4 [2]; each replicate): 0.0034 s⁻¹; remaining activity at 0.03 µM (PADI4 [3]; [9]): 82.2%; remaining activity at 0.3 µM (PADI4 [3]; [10]): 91.5%; remaining activity at 1 µM (PADI4 [3]; [10]): 75.7%; remaining activity at 3 µM (PADI4 [3]; [10]): 48.4%; remaining activity at 10 µM (PADI4 [3]; [10]): 19.7%
"N=C(N)NCCC[C@@H]1NC(=O)[C@H](Cc2ccc(O)cc2)NC(=O)[C@H](Cc2c[nH]cn2)NC(=O)[C@H](CCCNC(=N)CF)NC(=O)[C@H](CC(=O)O)NC(=O)[C@H](CCCNC(=N)N)NC(=O)[C@@H](Cc2ccc(O)cc2)NC(=O)CSC[C@@H](C(=O)NCC(N)=O)NC(=O)[C@H](Cc2ccc(O)cc2)NC(=O)[C@H](CCCCN)NC(=O)[C@@H]2CCCN2C(=O)[C@H](Cc2c[nH]cn2)NC1=O [PADI4_3_H4(2), yRD(2)HYRHPKYCG] ({CH2CO}-[dY]RD[Orn(fluoroacetimidoyl)]HYRHPKYCG-NH2; thioether N-12)",2480,5.47 µM and 4.15 µM and 5.26 µM,2.46 µM and 1.82 µM and 2 µM,1.86 µM and 1.33 µM and 1.52 µM,1.43 µM and 1.06 µM and 1.16 µM,1.24 µM and 1.01 µM and 1.09 µM,1100 ± 200,0.00267,68000,0.001,0.00102,15 ± 2,65 ± 7,–,103,102,100,83.7,102,101,"k2 / kinact (PADI4 [2]; each replicate, listed as P4_3_H4(2)): 0.0013 s⁻¹; remaining activity at 0.03 µM (PADI4 [3]; [9]): 82.9%; remaining activity at 0.1 µM (PADI4 [3]; [9]): 29%; remaining activity at 0.3 µM (PADI4 [3]; [10]): 96.2%; remaining activity at 1 µM (PADI4 [3]; [10]): 77.4%; remaining activity at 3 µM (PADI4 [3]; [10]): 41.2%; remaining activity at 10 µM (PADI4 [3]; [10]): 18.1%"
"CC[C@H](C)[C@H](NC(=O)[C@H](Cc1c[nH]c2ccccc12)NC(=O)[C@H](CCC(=O)O)NC(=O)[C@@H]1CSCC(=O)N[C@H](Cc2ccc(O)cc2)C(=O)N[C@@H](C(C)C)C(=O)N[C@@H](Cc2ccc(O)cc2)C(=O)N[C@@H](CCCNC(=N)CF)C(=O)N[C@@H](CC(=O)O)C(=O)N1)C(=O)N[C@@H](CC(N)=O)C(=O)N[C@@H](CCCNC(=N)N)C(=O)N[C@@H](C)C(=O)NCC(N)=O [cP4_165, yVY(2)DCEWINRAG] ({CH2CO}-[dY]VY[Orn(fluoroacetimidoyl)]DCEWINRAG-NH2; thioether N-6)",283,51.7 µM and 33.8 µM and 43.9 µM,22.5 µM and 16.4 µM and 14.6 µM,13.7 µM (2×) and 11.2 µM,11.9 µM and 10 µM and 8.76 µM,9.43 µM and 9.54 µM and 8.45 µM,8900 ± 1100,0.00267,1780,0.0013,0.0011,620 ± 60,170 ± 10,11800 ± 4900,97.2,95,94.1,89,97.8,99.6,remaining activity at 0.3 µM (PADI4 [3]; [10]): 99.2%; remaining activity at 0.3 µM (PADI4 [3]; [9]): 24.1%; remaining activity at 1 µM (PADI4 [3]; [10]): 97%
CC(=N)NCCC[C@@H]1NC(=O)[C@H](CC(=O)O)NC(=O)[C@H](Cc2ccc(O)cc2)NC(=O)[C@H](CCCCN)NC(=O)[C@H](CO)NC(=O)[C@@H](Cc2ccc(O)cc2)NC(=O)CSC[C@@H](C(=O)NCC(N)=O)NC(=O)[C@H](CC(=O)O)NC(=O)[C@H](CCCNC(=N)N)NC(=O)[C@@H]2CCCN2C(=O)[C@H](CO)NC(=O)[C@H](CCCNC(=N)N)NC1=O [Me4] ({CH2CO}-[dY]SKYD[Orn(acetimidoyl)]RSPRDCG-NH2; thioether N-12),–,–,–,–,–,–,–,–,–,–,–,–,–,> 20000,–,–,–,–,–,–,"Kd (PADI4 [2]; reversible binding, 1:1 binding model): 1700 ± 400 nM; remaining activity at 0.003 µM (PADI4 [3]; [11]): 91%; remaining activity at 0.01 µM (PADI4 [3]; [11]): 92.6%; remaining activity at 0.03 µM (PADI4 [3]; [11]): 96.4%; remaining activity at 0.1 µM (PADI4 [3]; [11]): 92.1%; remaining activity at 0.3 µM (PADI4 [3]; [11]): 93.7%; remaining activity at 1 µM (PADI4 [3]; [11]): 86.6%; remaining activity at 3 µM (PADI4 [3]; [11]): 84.6%; remaining activity at 30 µM (PADI4 [3]; peptide 30 µM, no preincubation, read-out: PADI4 activity, normalised (Figure 4b dose-response)): 41.5%; remaining activity at 50 µM (PADI4 [3]; peptide 50 µM, no preincubation, read-out: PADI4 activity, normalised (Figure 4b dose-response)): 25.9%"
